Biological target: T1, C-C chemokine receptor type 4 (Homo sapiens, UniProt P51679)
T1 sequence (P51679 whole entry): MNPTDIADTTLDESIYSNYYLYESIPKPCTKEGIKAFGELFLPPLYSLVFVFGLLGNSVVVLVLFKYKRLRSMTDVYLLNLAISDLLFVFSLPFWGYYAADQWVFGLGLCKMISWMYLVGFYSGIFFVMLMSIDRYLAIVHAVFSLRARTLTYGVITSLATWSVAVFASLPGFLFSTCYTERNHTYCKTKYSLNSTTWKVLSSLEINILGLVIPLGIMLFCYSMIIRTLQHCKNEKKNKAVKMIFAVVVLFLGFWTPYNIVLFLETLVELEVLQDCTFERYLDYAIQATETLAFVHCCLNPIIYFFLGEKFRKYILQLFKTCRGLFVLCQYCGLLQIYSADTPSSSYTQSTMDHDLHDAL
Assay: Inhibition of [125I]MDC binding to recombinant human C-C chemokine receptor type 4 (CCR4) expressed in murine pre-B cells
Type: cell-based

| Structure (SMILES) | IC50 [µM] |
| --- | --- |
| COc1ccc(CNC(=O)C[C@H]2S[C@H](c3ccc(Cl)cc3Cl)N(CC(=O)NCCCN3CCOCC3)C2=O)c(OC)c1 | 32 |
| O=C(C[C@H]1S[C@H](CCc2ccccc2)N(CC(=O)NCCCN2CCOCC2)C1=O)NCc1cccc2ccccc12 | 100 |
| Cc1ccc([C@H]2S[C@H](CC(=O)NCc3cccc4ccccc34)C(=O)N2CC(=O)NCCCN2CCOCC2)c(C)c1 | 11 |
| O=C(C[C@H]1S[C@H](c2ccc(F)cc2)N(CC(=O)NCCCN2CCOCC2)C1=O)NCc1cccc2ccccc12 | 4 |
| O=C(C[C@H]1S[C@H](c2cc(Cl)ccc2Cl)N(CC(=O)NCCCN2CCOCC2)C1=O)NCc1cccc2ccccc12 | 12 |
| O=C(C[C@H]1S[C@H](c2cc(Cl)cc(Cl)c2)N(CC(=O)NCCCN2CCOCC2)C1=O)NCc1cccc2ccccc12 | 9 |
| O=C(C[C@H]1S[C@H](c2ccccc2Cl)N(CC(=O)NCCCN2CCOCC2)C1=O)NCc1cccc2ccccc12 | 11 |
| C[C@H](NC(=O)C[C@H]1S[C@H](c2ccc(Cl)cc2Cl)N(CC(=O)NCCCN2CCOCC2)C1=O)c1cccc2ccccc12 | 8 |
| O=C(C[C@H]1S[C@H](c2cccc(Cl)c2)N(CC(=O)NCCCN2CCOCC2)C1=O)NCc1cccc2ccccc12 | 7 |
| O=C(C[C@H]1S[C@H](c2ccc(Cl)cc2Cl)N(Cc2cccc(CN3CCOCC3)c2)C1=O)NCc1cccc2ccccc12 | 100 |
| O=C(C[C@H]1S[C@H](c2ccc(Cl)cc2Cl)N(CC(=O)NCCCN2CCOCC2)C1=O)NCc1cccs1 | 11 |
| NCCNC(=O)CCN1C(=O)[C@@H](CC(=O)NCc2cccc3ccccc23)S[C@@H]1c1ccc(Cl)cc1Cl | 9 |
| CN(C)CC(=O)NCCN1C(=O)[C@@H](CC(=O)NCc2cccc3ccccc23)S[C@@H]1c1ccc(Cl)cc1Cl | 11 |
| O=C(CN1C(=O)[C@@H](CC(=O)Nc2nccs2)S[C@@H]1c1ccc(Cl)cc1Cl)NCCCN1CCOCC1 | 11 |
| O=C(CN1C(=O)[C@@H](CC(=O)NC(c2ccccc2)c2ccccc2)S[C@@H]1c1ccc(Cl)cc1Cl)NCCCN1CCOCC1 | 6 |
| O=C(C[C@H]1S[C@H](C2CCCCC2)N(CC(=O)NCCCN2CCOCC2)C1=O)NCc1cccc2ccccc12 | 100 |
| O=C(C[C@H]1S[C@H](Cc2ccccc2)N(CC(=O)NCCCN2CCOCC2)C1=O)NCc1cccc2ccccc12 | > 100 |
| CN1CCN(C(=O)CN2C(=O)[C@@H](CC(=O)NCc3cccc4ccccc34)S[C@@H]2c2ccc(Cl)cc2Cl)CC1 | 20 |
| O=C(C[C@H]1S[C@H](c2ccc(Cl)cc2Cl)N(CC(=O)NCCCN2CCOCC2)C1=O)NCc1ccccc1-c1ccccc1 | 6 |
| O=C(C[C@H]1S[C@H](c2ccc(Cl)cc2Cl)N(CC(=O)NCCCN2CCOCC2)C1=O)NCc1ccccc1Cl | 10 |

| Structure (SMILES) | IC50 [µM] |
| --- | --- |
| O=C(C[C@H]1S[C@H](c2ccc(Cl)cc2Cl)N(CC(=O)NCCCN2CCOCC2)C1=O)NCc1cc(Cl)ccc1Cl | 4 |
| C[C@@H](NC(=O)C[C@H]1S[C@H](c2ccc(Cl)cc2Cl)N(CC(=O)NCCCN2CCOCC2)C1=O)c1ccccc1 (stereo in doubt) | 8 |
| COc1ccc(CNC(=O)C[C@H]2S[C@H](c3ccc(Cl)cc3Cl)N(CC(=O)NCCCN3CCOCC3)C2=O)c(OC)c1OC | 11 |
| CN(C)CCN1C(=O)[C@@H](CC(=O)NCc2cccc3ccccc23)S[C@@H]1c1ccc(Cl)cc1Cl | 36 |
| O=C(C[C@H]1S[C@H](c2cccc(Cl)c2Cl)N(CC(=O)NCCCN2CCOCC2)C1=O)NCc1cccc2ccccc12 | 18 |
| O=C(C[C@H]1S[C@H](c2ccc(Cl)cc2Cl)N(CCNS(=O)(=O)CCCN2CCOCC2)C1=O)NCc1cccc2ccccc12 | 24 |
| O=C(C[C@H]1S[C@@H](c2ccc(Cl)cc2)N(CC(=O)NCCCN2CCOCC2)C1=O)NCc1cccc2ccccc12 | ~6 |
| O=C(C[C@H]1S[C@H](c2ccsc2)N(CC(=O)NCCCN2CCOCC2)C1=O)NCc1cccc2ccccc12 | 66 |
| O=C(C[C@H]1S[C@H](c2cccc(C(F)(F)F)c2)N(CC(=O)NCCCN2CCOCC2)C1=O)NCc1cccc2ccccc12 | 12 |
| O=C(C[C@H]1S[C@H](c2ccc(Cl)cc2Cl)N(CCN2CCOCC2)C1=O)NCc1cccc2ccccc12 | 9 |
| C[C@H](NC(=O)C[C@H]1S[C@H](c2ccc(Cl)cc2Cl)N(CC(=O)NCCCN2CCOCC2)C1=O)c1ccccc1 | 12 |
| O=C(C[C@H]1S[C@H](c2ccco2)N(CC(=O)NCCCN2CCOCC2)C1=O)NCc1cccc2ccccc12 | 29 |
| O=C(C[C@H]1S[C@H](c2ccc(Cl)cc2Cl)N(CC(=O)NCCCN2CCOCC2)C1=O)NCc1ccc(Cl)c(C(F)(F)F)c1 | 6 |
| COc1ccc([C@H]2S[C@H](CC(=O)NCc3cccc4ccccc34)C(=O)N2CC(=O)NCCCN2CCOCC2)c(OC)c1 | 33 |
| O=C(C[C@H]1S[C@H](c2ccc(Cl)c(Cl)c2)N(CC(=O)NCCCN2CCOCC2)C1=O)NCc1cccc2ccccc12 | > 25 |
| O=C(CN1C(=O)[C@@H](CC(=O)NC2CCCc3ccccc32)S[C@@H]1c1ccc(Cl)cc1Cl)NCCCN1CCOCC1 (stereo not given in full) | 6.7 |
| O=C(C[C@H]1S[C@H](c2ccc(Cl)cc2Cl)N(CC(=O)NCCCN2CCOCC2)C1=O)NCCc1ccc(Cl)c(Cl)c1 | 13 |
| O=C(C[C@H]1S[C@H](c2c(Cl)cccc2Cl)N(CC(=O)NCCCN2CCOCC2)C1=O)NCc1cccc2ccccc12 | 8 |
| CC(C)(C)CCNC(=O)C[C@H]1S[C@H](c2ccc(Cl)cc2Cl)N(CC(=O)NCCCN2CCOCC2)C1=O | 21 |
| O=C(C[C@H]1S[C@H](c2ccc(Cl)cc2Cl)N(CCCN2CCOCC2)C1=O)NCc1cccc2ccccc12 | 33 |

Stronger by IC50, values ahead:

| IC50 [µM] | Structure (SMILES) |
| --- | --- |
| 3.5 | O=C(C[C@H]1S[C@H](c2ccc(Cl)cc2Cl)N(CCC(=O)N2CCNCC2)C1=O)NCc1cccc2ccccc12 |
| 3.5 | O=C(C[C@H]1S[C@H](c2ccc(Cl)cc2Cl)N(CC(=O)NCCN2CCOCC2)C1=O)NCc1cccc2ccccc12 |
| 2.5 | O=C(C[C@H]1S[C@H](c2ccc(Cl)cc2Cl)N(CC(=O)NCCCN2CCOCC2)C1=O)NCc1cccc(C(F)(F)F)c1F |
| 2.5 | Cc1ccc(CNC(=O)C[C@H]2S[C@H](c3ccc(Cl)cc3Cl)N(CC(=O)NCCCN3CCOCC3)C2=O)n1C |
| 2.5 | O=C(C[C@H]1S[C@H](c2ccc(Cl)cc2Cl)N(CC(=O)NCCCN2CCOCC2)C1=O)NCc1ccc(-c2ccccc2)cc1 |
| 2.4 | O=C(C[C@H]1S[C@H](c2ccc(Cl)cc2Cl)N(CC(=O)NCCCCCN2CCOCC2)C1=O)NCc1cccc2ccccc12 |
| 2.3 | Cc1cccc(CNC(=O)C[C@H]2S[C@H](c3ccc(Cl)cc3Cl)N(CC(=O)NCCCN3CCOCC3)C2=O)c1 |
| 2 | O=C(C[C@H]1S[C@H](c2ccc(Cl)cc2Cl)N(CC(=O)NCCCN2CCOCC2)C1=O)NCc1ccc(Cl)cc1Cl (stereo in doubt; 66) |
| 1.5 | O=C(C[C@H]1S[C@H](c2ccc(Cl)cc2Cl)N(CC(=O)NCCCN2CCOCC2)C1=O)NCc1cc(Cl)cc(Cl)c1 |
| 1.5 | O=C(C[C@H]1S[C@H](c2ccc(Cl)cc2Cl)N(CC(=O)NCCCN2CCOCC2)C1=O)NCc1cccc(F)c1 |
| 1.4 | O=C(C[C@H]1S[C@H](c2ccc(Cl)cc2Cl)N(CC(=O)N2CCNCC2)C1=O)NCc1cccc2ccccc12 |
| 1 | O=C(C[C@H]1S[C@H](c2ccc(F)cc2F)N(CC(=O)NCCCN2CCOCC2)C1=O)NCc1cccc2ccccc12 |
| 1 | O=C(C[C@H]1S[C@H](c2ccc(Cl)cc2Cl)N(CC(=O)NCCCN2CCOCC2)C1=O)NCc1cccc(C(F)(F)F)c1 |
| 1 | O=C(C[C@H]1S[C@H](c2ccc(F)cc2Cl)N(CC(=O)NCCCN2CCOCC2)C1=O)NCc1cccc2ccccc12 |
| 0.93 | O=C(C[C@H]1S[C@H](c2ccc(Cl)cc2Cl)N(CC(=O)NCCCN2CCOCC2)C1=O)NCc1cccc(Cl)c1 |
| 0.83 | O=C(C[C@H]1S[C@H](c2ccc(Cl)cc2)N(CC(=O)NCCCN2CCOCC2)C1=O)NCc1cccc2ccccc12 |
| 0.79 | O=C(C[C@H]1S[C@H](c2ccc(Cl)cc2Cl)N(CC(=O)NCCCN2CCOCC2)C1=O)NCc1cccc(Cl)c1Cl |
| 0.69 | O=C(C[C@H]1S[C@H](c2ccc(Cl)cc2Cl)N(CC(=O)NCCCN2CCOCC2)C1=O)NCc1cccc2ccccc12 |
| 0.6 | O=C(C[C@H]1S[C@H](c2ccc(Cl)cc2Cl)N(CC(=O)N2CCC(N3CCCC3)CC2)C1=O)NCc1cccc2ccccc12 |
| 0.57 | CN1CCN(CCCNC(=O)CN2C(=O)[C@@H](CC(=O)NCc3cccc4ccccc34)S[C@@H]2c2ccc(Cl)cc2Cl)CC1 |
| 0.44 | Cc1cccc(CNC(=O)C[C@H]2S[C@H](c3ccc(Cl)cc3Cl)N(CC(=O)NCCCN3CCOCC3)C2=O)c1C |
| 0.4 | Cc1c(Cl)cccc1CNC(=O)C[C@H]1S[C@H](c2ccc(Cl)cc2Cl)N(CC(=O)NCCCN2CCOCC2)C1=O |
| 0.38 | O=C(C[C@H]1S[C@H](c2ccc(Cl)cc2Cl)N(CC(=O)NCCCCN2CCOCC2)C1=O)NCc1cccc2ccccc12 |
| 0.36 | CN(C)CCCN(C)C(=O)CN1C(=O)[C@@H](CC(=O)NCc2cccc3ccccc23)S[C@@H]1c1ccc(Cl)cc1Cl |
| 0.34 | O=C(C[C@H]1S[C@H](c2ccc(Cl)cc2Cl)N(CC(=O)NCCCN2CCOCC2)C1=O)NCc1csc2ccccc12 |
| 0.33 | O=C(C[C@H]1S[C@H](c2ccc(Cl)cc2Cl)N(CC(=O)N2CCC(N3CCCCC3)CC2)C1=O)NCc1cccc2ccccc12 |
| 0.31 | O=C(C[C@H]1S[C@H](c2ccc(Cl)cc2Cl)N(CC(=O)NCCCN2CCCC2)C1=O)NCc1cccc2ccccc12 |
| 0.25 | C[C@@H](NC(=O)C[C@H]1S[C@H](c2ccc(Cl)cc2Cl)N(CC(=O)NCCCN2CCOCC2)C1=O)c1ccccc1 (stereo in doubt; 89) |
| 0.2 | O=C(C[C@H]1S[C@H](c2ccc(Cl)cc2Cl)N(CC(=O)NCCCN2CCCCC2)C1=O)NCc1cccc2ccccc12 |
| 0.14 | Cc1c(Cl)cccc1CNC(=O)C[C@H]1S[C@H](c2ccc(Cl)cc2Cl)N(CC(=O)NCCCN2CCCCC2)C1=O |

Reference: ChEMBL document CHEMBL1148225, “Discovery and SAR of trisubstituted thiazolidinones as CCR4 antagonists” (Bioorg Med Chem Lett, 2004)
